In doi:10.1101/2022.04.25.489410v1 (biorxiv, 2022):

Key:
Type in all cases: biochemical, uncultured bacterium
SN243 [1] = test: absorbance at […] nm, initial rates, Michaelis-Menten fit; conditions: 100 mM Tris pH 8.0, 150 mM NaCl, 25 °C
SN243 [2] = test: fluorescence, initial rates, Michaelis-Menten fit; conditions: 100 mM Tris pH 8.0, 150 mM NaCl, 25 °C
SN243 [3] = test: product inhibition of pNP-β-GlcA hydrolysis; conditions: 10 μM pNP-β-GlcA; 100 mM Tris pH 8.0, 150 mM NaCl, 25 °C

Row | Km (SN243 [1]) | Compound | further results
1 | 23 ± 0.9 mM | O=[N+]([O-])c1ccc(O[C@@H]2OC[C@@H](O)[C@H](O)[C@H]2O)cc1 [pNP-β-Xyl] | –
2 | – | O=C1OC2(c3ccc(O[C@@H]4O[C@H](C(=O)O)[C@@H](O)[C@H](O)[C@H]4O)cc3Oc3cc(O[C@@H]4O[C@H](C(=O)O)[C@@H](O)[C@H](O)[C@H]4O)ccc32)c2ccccc21 [FD-β-GlcA] | Km (SN243 [2]): 0.008 mM
3 | 56.5 ± 4.1 mM | O=[N+]([O-])c1ccc(O[C@@H]2O[C@H](CO)[C@@H](O)[C@H](O)[C@H]2O)cc1 [pNP-β-Glc] | –
4 | – | O=C(O)[C@H]1OC(O)[C@H](O)[C@@H](O)[C@@H]1O (some centres unmarked) [GlcA] | IC50 (SN243 [3]): 179 µM

Row | Compound | Km (SN243 [1]) | further results
5 | O=C(O)[C@H]1O[C@@H](Oc2ccc([N+](=O)[O-])cc2)[C@H](O)[C@@H](O)[C@@H]1O [pNP-β-GlcA] | 0.0137 mM | –
